Values of other authors in patent publication US20260248891A1, “TIRZEPATIDE COMPOSITIONS AND USE” (Eli Lilly and Company, priority 2022, published 2026).

System: patients with obesity or overweight
Settings: Phase 3 study, currently approved doses

Question: Which weight loss does the source give for tirzepatide here?
Answer: The weight loss was 15.7%.
